Key:
Assay type in all cases: cell-based
[1] = test system: calcium mobilization in response to LTB4; test: LTB4-induced calcium mobilization in human neutrophils; conditions: compound 1 μM, LTB4 10 nM, FIG. 2
Description: Human granulocytes 95% neutrophils) are prepared from whole blood using Dextran 500 to remove red blood cells, followed by centrifugation over Ficoll-Paque to remove mononuclear cells and hypotonic lysis of any remaining red blood cells. After centrifugation the granulocytes are suspended in Ca^++/Mg^++-free phosphate-buffered saline (PBS). Granulocytes (10^7 cells/nil) are incubated with the acetoxymethyl ester of indo-1 ([…]) for 30 min, followed by washing twice with PBS^− and resuspension in the same medium to obtain a final cell concentration of 3.22×10^6 cells/ml. Five minutes prior to commencing data acquisition, Ca^++ and Mg^++ are added to give final concentrations of 1.8 and 1 mM, respectively. Calcium measurements are performed at 37° C. using a spectrofluorometer equipped with a temperature-controlled cuvette holder and a magnetic stirrer. The excitation and emission wavelengths are 331 nm and 410 nm, respectively. Following stabilization of the baseline, fluorescence is measured for 1 min, prior to the addition of either vehicle or various concentrations of a potential 5-oxo-ETE antagonist. […] Fmax is determined from fluorescence measurements after the addition of digitonin, whereas Fmin is determined after determination of autofluorescence as described in the literature (Gelfand et al, J. Biol. Chem. 261:11520 (1986)). […]

OXE receptor [2] = target: T1, OXE receptor (Homo sapiens, UniProt Q8TDS5); test: 5-oxo-ETE-induced actin polymerization (F-actin levels) in eosinophils; set-up: endogenous in cells; conditions: 5-oxo-ETE 10 nM, Table 2
Description: F-actin levels in eosinophils are measured using unfractionated leukocytes, prepared as described above. Leukocytes (5×10^7 cells/ml) are treated with PC5-labeled mouse anti-human CD16 (10 μl/10^6 cells; Beckman-Coulter) for 30 min on ice. PBS (2 ml/10^6 cells) is then added and the mixture centrifuged at 200×g for 10 min. The pellet is resuspended in ice cold PBS containing Ca^++ (1.8 mM) and Mg^++ (1 mM) to give a concentration of 5×10^6 cells/ml. Aliquots (90 μl) of the leukocyte suspension are first incubated at 37° C. with either vehicle (10 μl PBS containing Ca^++ and Mg^++ and 0.1% BSA) or vehicle containing a 5-oxo-ETE antagonist. After 5 min, either vehicle or vehicle containing 5-oxo-ETE (final concentration, 10 nM) is added and the incubation continued for a further 20 s. The incubations are then terminated by addition of formaldehyde (37%) to give a final concentration of 8.5%. […] F-actin levels are measured by flow cytometry in eosinophils, which are gated based on high side scatter and low staining with anti-CD16. F-actin levels in the eosinophil population are assessed on the basis of fluorescence due to staining with NBD-phallacidin.

OXE receptor [3] = target: T1, OXE receptor; test: 5-oxo-ETE-induced calcium mobilization in human granulocytes; set-up: Human granulocytes 95% neutrophils) are prepared from whole blood; endogenous in cells; host or cells: human blood granulocytes (>=95% neutrophils)
Description: Primary Screening for Antagonist Activity: Calcium Mobilization in Human Granulocytes
Human granulocytes 95% neutrophils) are prepared from whole blood using Dextran 500 to remove red blood cells, followed by centrifugation over Ficoll-Paque to remove mononuclear cells and hypotonic lysis of any remaining red blood cells. After centrifugation the granulocytes are suspended in Ca^++/Mg^++-free phosphate-buffered saline (PBS). Granulocytes (10^7 cells/nil) are incubated with the acetoxymethyl ester of indo-1 ([…]) for 30 min, followed by washing twice with PBS^− and resuspension in the same medium to obtain a final cell concentration of 3.22×10^6 cells/ml. Five minutes prior to commencing data acquisition, Ca^++ and Mg^++ are added to give final concentrations of 1.8 and 1 mM, respectively. Calcium measurements are performed at 37° C. using a spectrofluorometer equipped with a temperature-controlled cuvette holder and a magnetic stirrer. The excitation and emission wavelengths are 331 nm and 410 nm, respectively. Following stabilization of the baseline, fluorescence is measured for 1 min, prior to the addition of either vehicle or various concentrations of a potential 5-oxo-ETE antagonist. Two min later, 5-oxo-ETE (10 nM) is added, followed 1 min later by digitonin (final concentration 0.1%). Data acquisition is terminated after a further 0.5 min. In some cases LTB4 (10 nM) is added 2 min after 5-oxo-ETE, followed 0.5 min later by addition of digitonin. Fmax is determined from fluorescence measurements after the addition of digitonin, whereas Fmin is determined after determination of autofluorescence as described in the literature (Gelfand et al, J. Biol. Chem. 261:11520 (1986)). A dissociation constant of 250 nM for the indo-1/Ca^++ complex is used to calculate [Ca^++]i. […] Measurement of Actin Polymerization in Eosinophils

OXE receptor [4] = target: T1, OXE receptor; test: Neutrophil migration (chemotaxis) induced by 5-oxo-ETE, microchemotaxis chambers; set-up: Human granulocytes 95% neutrophils) are prepared from whole blood; endogenous in cells; host or cells: human blood granulocytes (>=95% neutrophils); conditions: 5-oxo-ETE 100 nM; human granulocytes; Table 2
Description: Cell migration is measured by the modified Boyden technique using 48-well microchemotaxis chambers and Sartorius cellulose nitrate filters (8 μm pore size; 140 μm thickness) as described previously (Powell et al., J Immunol 156: 336 (1996)). Granulocytes (≧95% neutrophils) are prepared as described above. Immediately prior to use the filters are soaked in PBS containing calcium (1 mM), magnesium (1 mM), and 0.3% BSA. Either vehicle (PBS containing Ca^++, Mg^++, and 0.3% BSA) or vehicle containing 5-oxo-ETE (100 nM final concentration) is added to the bottom well in a volume of 30 μl, whereas neutrophils (150,000 cells in 55 μl PBS containing Ca^++, Mg^++ and 0.4% ovalbumin) and either vehicle or various concentrations of a 5-oxo-ETE antagonist are added to each of the top wells. The chambers are incubated for 2 h at 37° C. in 5% CO2 and humidified air. […] The filters are mounted on slides with coverslips using Permount and the numbers of cells on the bottom surfaces of the filters are counted in 5 different fields at a magnification of 400× for each incubation, each of which is performed in triplicate. In cases in which there are large numbers of cells on the bottom surfaces of the filters only quarter or half fields are counted and the results corrected accordingly.

[5] = 5-oxo-ETE 10 nM, human granulocytes, Table 2, read-out: IC50 (μM) Ca^++

T1 sequence (Q8TDS5 whole entry): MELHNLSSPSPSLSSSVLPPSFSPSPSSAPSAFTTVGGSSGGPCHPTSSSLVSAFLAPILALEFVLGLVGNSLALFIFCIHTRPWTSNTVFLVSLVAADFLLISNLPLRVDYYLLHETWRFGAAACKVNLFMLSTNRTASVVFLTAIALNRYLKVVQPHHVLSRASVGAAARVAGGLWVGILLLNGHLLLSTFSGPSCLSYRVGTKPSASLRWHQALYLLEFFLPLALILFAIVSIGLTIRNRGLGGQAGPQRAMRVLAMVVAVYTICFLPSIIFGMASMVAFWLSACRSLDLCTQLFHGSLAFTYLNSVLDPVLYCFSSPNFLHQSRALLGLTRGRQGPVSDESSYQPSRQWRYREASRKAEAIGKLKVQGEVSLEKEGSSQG

Structure (SMILES)	effect on calcium mobilization in response to LTB4 [1]	IC50 (OXE receptor [2])	IC50 (OXE receptor [3]; [5])	effect on calcium mobilization in response to 5-oxo-ETE (OXE receptor [3]; compound 1 μM, 5-oxo-ETE 10 nM, human neutrophils, FIG. 2)	IC50 (OXE receptor [4])	IC50 (OXE receptor [3]; Table 6, carboxyl side chain variation, readout not given, values match Ca^++, read-out: IC50)	IC50 (OXE receptor [3]; Table 7, alkyl variation, readout not given, values match Ca^++, read-out: IC50)
CCCCCCc1c(C(=O)CC(C)CC(=O)O)c2cc(Cl)ccc2n1C (racemic) [Compound 60, 5-(5-Chloro-2-hexyl-1-methyl-1H-indol-3-yl)-3-methyl-5-oxo-pentanoic acid]	not to LTB4	0.072 µM	0.025 µM	completely blocked	0.11 µM		
CCCCCCc1cc2ccccc2n1C(=O)CC(C)CC(=O)O (stereo not shown) [Compound 2, 5-(2-Hexyl-indol-1-yl)-3-methyl-5-oxo-pentanoic acid]		0.46 µM	0.09 µM		0.82 µM	0.09 µM	0.09 µM
